Reference: patent US20060003920A1, “LAT1 transporters expressed in cancer cells” (Xenoport, Inc., priority 2004, published 2006)

Molecular target: T1, LAT1 and 4F2HC (Homo sapiens, UniProt Q01650)
T1 construct: expressed in transfected cells; host or cells: Xenopus oocytes, injected with in vitro transcribed cRNA
Assay: 14C-gabapentin uptake into Xenopus oocytes expressing LAT1 and 4F2HC
Format: cell-based
Settings: Xenopus oocytes injected with LAT1 and 4F2HC cRNA vs noninjected controls
Source text: To assess transport function of a specific transporter protein, it can be desirable to clone the cDNA and express the protein in cells that have low endogenous transport activity. Human LAT1 was cloned by PCR, fully sequenced, and subcloned into plasmids that can be used for expression in mammalian cells or Xenopus oocytes. The co-subunit required for LAT1 function, 4F2HC (Genbank accession AB018010), was also cloned and sequenced. Unless otherwise noted, 4F2HC was also co-expressed in each heterologous system described in the examples. […] For expression in Xenopus oocytes, in vitro LAT1 and 4F2HC cRNA was prepared and injected into defoliculated oocytes.

T1 sequence (Q01650 whole entry): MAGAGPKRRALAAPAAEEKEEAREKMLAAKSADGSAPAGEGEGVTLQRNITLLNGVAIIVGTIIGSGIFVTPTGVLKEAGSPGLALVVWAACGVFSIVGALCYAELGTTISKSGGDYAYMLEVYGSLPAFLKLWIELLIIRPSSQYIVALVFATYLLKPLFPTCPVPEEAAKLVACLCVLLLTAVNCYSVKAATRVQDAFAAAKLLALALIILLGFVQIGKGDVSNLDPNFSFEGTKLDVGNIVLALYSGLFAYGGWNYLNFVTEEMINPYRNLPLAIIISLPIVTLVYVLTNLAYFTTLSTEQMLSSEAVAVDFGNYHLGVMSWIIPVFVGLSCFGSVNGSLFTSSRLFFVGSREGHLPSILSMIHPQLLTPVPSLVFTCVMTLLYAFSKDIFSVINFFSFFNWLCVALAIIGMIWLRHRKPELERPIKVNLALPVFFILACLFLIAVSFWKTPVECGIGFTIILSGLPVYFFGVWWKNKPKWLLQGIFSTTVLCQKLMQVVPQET
T1 sequence (P08195 102-630 partner): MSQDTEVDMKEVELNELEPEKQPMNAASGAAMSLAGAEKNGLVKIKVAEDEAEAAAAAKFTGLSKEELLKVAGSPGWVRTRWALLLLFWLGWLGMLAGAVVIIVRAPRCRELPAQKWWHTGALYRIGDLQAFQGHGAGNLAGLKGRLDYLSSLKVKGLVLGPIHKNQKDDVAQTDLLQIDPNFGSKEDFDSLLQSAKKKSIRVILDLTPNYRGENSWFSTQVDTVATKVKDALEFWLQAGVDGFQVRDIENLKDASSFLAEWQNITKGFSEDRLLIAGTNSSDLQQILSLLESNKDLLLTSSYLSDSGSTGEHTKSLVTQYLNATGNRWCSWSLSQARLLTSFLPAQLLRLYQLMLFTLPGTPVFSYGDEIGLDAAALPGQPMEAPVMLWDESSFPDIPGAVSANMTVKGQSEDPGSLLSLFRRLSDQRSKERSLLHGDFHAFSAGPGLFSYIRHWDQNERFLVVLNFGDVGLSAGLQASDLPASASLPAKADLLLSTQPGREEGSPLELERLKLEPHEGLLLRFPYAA

NCC1(CC(=O)O)CCCCC1 [Gabapentin]
14C-gabapentin uptake into oocytes: higher levels of 14C-gabapentin uptake than noninjected controls
